Source: article PMC4594923, “Food Polyphenols Fail to Cause a Biologically Relevant Reduction of COX-2 Activity” (PLoS ONE, 2015)
Marks after values point to notes of the source that are not given here.

Columns and labels:
[1] = system: arachidonic acid (AA) cascade; assay: liver tissue oxylipin/PG levels in LPS induced sepsis in mice; type: in vivo, C57BL/6N mice; settings: liver tissue 24 h after LPS treatment;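 note: male C57BL/6N mice challenged with LPS, kidney taken 24 h later, oxylipins quantified by LC-MS after solid-phase extraction of tissue homogenate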
[2] = system: COX–2; settings: read-out: IC50, RAW 264.7 cells; cited from earlier work
[3] = system: arachidonic acid (AA) cascade; assay: kidney tissue oxylipin/PG levels in LPS induced sepsis in mice; settings: kidney tissue 24 h after LPS treatment, LPS +, mean;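 note: male C57BL/6N mice challenged with LPS, kidney taken 24 h later, oxylipins quantified by LC-MS after solid-phase extraction of tissue homogenate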

SMILES: O=c1cc(-c2ccc(O)cc2)oc2cc(O)cc(O)c12 [Apigenin, apigenin]
- 1a,1b-dihomo-PGF2α [3]: 1.3 nM
- 4,5-DiHDPE [3]: 15 nM
- 4-HDHA [3]: 19 nM
- 5(6)-EpETrE [3]: 130^* nM
- 5,6-DiHETrE [3]: 1.6^* nM
- 5-HEPE [3]: 1.0 nM
- 5-HETE [3]: 12 nM
- 5-oxo-ETE [3]: 28 nM
- 6-keto-PGF1α [3]: 55 nM
- 7,8-DiHDPE [3]: 1.6 nM
- 7-HDHA [3]: 3.5 nM
- 8(9)-EpETrE [3]: 32^† nM
- 8,9-DiHETrE [3]: 1.6 nM
- 8-HDHA [3]: 20^† nM
- 8-HETE [3]: 3.4 nM
- 8-iPF2a [3]: 1.8 nM
- 9(10)-EpODE [3]: 13 nM
- 9(10)-EpOME [3]: 150 nM
- 9(10)-Epoxystearic acid [3]: 77^* nM
- 9,10,13-TriHOME [3]: 4.8 nM
- 9,10-DiHODE [3]: 1.1 nM
- 9,10-DiHOME [3]: 15^† nM
- 9,10-Dihydroxystearic acid [3]: 57 nM
- 9,12,13-TriHOME [3]: 27 nM
- 9-HETE [3]: 3.5 nM
- 9-HODE [3]: 150 nM
- 9-HOTrE [3]: 3.2 nM
- 9-oxo-ODE [3]: 46 nM
- 10(11)-EpDPE [3]: 82^‡ nM
- 10,11-DiHDPE [3]: 1.9 nM
- 10-HDHA [3]: 3.6 nM
- 11(12)-EpETE [3]: 4.4 nM
- 11(12)-EpETrE [3]: 80^† nM
- 11,12-DiHETrE [3]: 2.1 nM
- 11-HDHA [3]: 5.7 nM
- 11-HETE [3]: 16 nM
- 12(13)-EpODE [3]: 6.0 nM
- 12(13)-EpOME [3]: 110 nM
- 12,13-DiHOME [3]: 32^* nM
- 12-HEPE [3]: 1.1 nM
- 12-HETE [3]: 10 nM
- 13(14)-EpDPE [3]: 65^† nM
- 13,14-DiHDPE [3]: 3.0 nM
- 13,14-dihydro-15-keto-PGF2α [3]: 2.7 nM
- 13-HDHA [3]: 6.9 nM
- 13-HODE [3]: 120 nM
- 13-HOTrE [3]: 3.3 nM
- 13-oxo-ODE [3]: 8.5 nM
- 14(15)-EpETE [3]: 5.4^‡ nM
- 14(15)-EpETrE [3]: 60^† nM
- 14,15-DiHETE [3]: 0.7 nM
- 14,15-DiHETrE [3]: 5.9 nM
- 14-HDHA [3]: 8.6 nM
- 15(16)-EpODE [3]: 65 nM
- 15(S)-HETrE [3]: 4.6 nM
- 15,16-DiHODE [3]: 13 nM
- 15-HETE [3]: 22 nM
- 15-oxo-ETE [3]: 8.2 nM
- 16(17)-EpDPE [3]: 61^‡ nM
- 16,17-DiHDPE [3]: 8.2 nM
- 16-HDHA [3]: 6.3 nM
- 17(18)-EpETE [3]: 6.2^‡ nM
- 17,18-DiHETE [3]: 2.7 nM
- 17-HDHA [3]: 17 nM
- 18-HEPE [3]: 1.5 nM
- 19(20)-EpDPE [3]: 92^‡ nM
- 19,20-DiHDPE [3]: 59 nM
- 20-HDHA [3]: 18 nM
- 20-HEPE [3]: 5.2 nM
- EKODE [3]: 40 nM
- PGD2 [3]: 13 nM
- PGE1 [3]: 4.7 nM
- PGE2 [3]: 110 nM
- PGF1α [3]: 2.8 nM
- PGF2α [3]: 33 nM
- TXB2 [3]: 2.0 nM
- 5,6-DiHETE ([3]; < = below LOQ): < 0.25 nM
- 5-iPF2α ([3]; < = below LOQ): < 1.0 nM
- 8(9)-EpETE ([3]; < = below LOQ): 2.9^† nM
- 12,13-DiHODE ([3]; < = below LOQ): < 2.0 nM
- 13,14-dihydro-15-keto-PGE1 ([3]; < = below LOQ): 0.41 nM
- 20-HETE ([3]; < = below LOQ): < 2.7 nM
- PGD1 ([3]; < = below LOQ): < 0.50 nM
- PGF2α ([3]; second listing of PGF2α (r9)): 33 nM
